ChEMBL document CHEMBL5385844, “Discovery of novel imidazole chemotypes as isoform-selective JNK3 inhibitors for the treatment of Alzheimer's disease” (Eur J Med Chem, 2023)

Columns and labels:
[1] = Permeability of the compound by PAMPA-BBB assay; format: ADME; conditions: read-out: permeability
[2] = Apparent permeability across basolateral to apical side in human Caco-2 cells at 10 uM incubated for 1 hr by LC-MS/MS analysis; format: ADME, cell-based
[3] = Apparent permeability across apical to basolateral side in human Caco-2 cells at 10 uM incubated for 1 hr by LC-MS/MS analysis; format: ADME, cell-based
Mus musculus [4] = assay: Anti-alzheimer activity against homozygous 3 x Tg mouse model assessed as time spent in platform quadrant at 60 mg/kg, po administered daily for 2 months and measured after 27 days of treatment by Morris water maze test (reference value: 15.68 +/- 1.65 sec); format: functional; conditions: 1460 h
Mus musculus [5] = assay: Anti-alzheimer activity against homozygous 3 x Tg mouse model assessed as time spent in platform quadrant at 30 mg/kg, po administered daily for 2 months and measured after 27 days of treatment by Morris water maze test (reference value: 15.68 +/- 1.65 sec); format: functional; conditions: 1460 h
Mus musculus [6] = assay: Anti-alzheimer activity against homozygous 3 x Tg mouse model assessed as escape latency time at 60 mg/kg, po administered daily for 2 months and measured after 60 days of treatment by Passive avoidance test (reference value: 43.44 +/- 7.35 sec); format: functional; conditions: 1460 h
Mus musculus [7] = assay: Anti-alzheimer activity against homozygous 3 x Tg mouse model assessed as spontaneous alteration at 60 mg/kg, po administered daily for 2 month and measured after 57 days of treatment by Y-maze test (reference value: 46.81 +/- 2.76%); format: functional; conditions: time 2 months, 1460 h
[8] = Toxicity in APP/PS1 mouse assessed as weight change at 30 mg/kg, po treated 3 times/week for 1 month; format: organism-based; conditions: in vivo, 730 h, time 1 months
[9] = Toxicity in APP/PS1 mouse assessed as dead animal at 30 mg/kg, po treated 3 times/week for 1 month; format: organism-based; conditions: in vivo, 730 h, time 1 months
Mus musculus [10] = assay: Anti-alzheimer activity against APP/PS1 dE9 double transgenic mouse model assessed as time spent in platform quadrant at 30 mg/kg, po administered 3 times/week for 1 month and measured after 40 to 45 days of treatment by Morris water maze test (reference value: 11.06 +/- 1.53 %); format: functional; conditions: time 27 day
[11] = Brain to Plasma ratio in Sprague-Dawley rat at 30 mg/kg, po measured at Tmax; format: ADME, organism-based; conditions: read-out: BPR
[12] = Plasma concentration in Sprague-Dawley rat at 30 mg/kg, po measured at Tmax; format: ADME, organism-based
[13] = Drug uptake in Sprague-Dawley rat brain at 30 mg/kg, po measured at Tmax; format: ADME, organism-based; conditions: in vivo
Mus musculus [14] = assay: Anti-alzheimer activity against APP/PS1 dE9 double transgenic mouse model assessed as spontaneous alteration at 30 mg/kg, po administered 3 times/week for 1 month and measured after 27 days of treatment by Y-maze test (reference value: 46.70 +/- 3.32%); format: functional; conditions: time 1 months, 730 h
Mus musculus [15] = assay: Anti-alzheimer activity against APP/PS1 dE9 double transgenic mouse model assessed as spontaneous alteration at 10 mg/kg, po administered 3 times/week for 1 month and measured after 27 days of treatment by Y-maze test (reference value: 46.70 +/- 3.32%); format: functional; conditions: time 1 months, 730 h
[16] = Toxicity in APP/PS1 mouse assessed as weight change at 10 mg/kg, po treated 3 times/week for 1 month; format: organism-based; conditions: in vivo, 730 h, time 1 months
[17] = Oral bioavailability in Sprague-Dawley rat at 3 mg/kg measured upto 24 hrs by UPLC analysis; format: ADME, organism-based; conditions: in vivo
[18] = Half life in Sprague-Dawley rat at 3 mg/kg, po measured upto 24 hrs by UPLC analysis; format: ADME, organism-based; conditions: in vivo
[19] = Tmax in Sprague-Dawley rat at 3 mg/kg, po measured upto 24 hrs by UPLC analysis; format: ADME, organism-based; conditions: in vivo
Cortical neurone [20] = assay: Neuroprotective activity against Amyloid beta (1 to 42)-induced toxicity in rat cortical neuron assessed as cell viability at 20 uM measured after 24 hrs by MTT assay; format: functional; conditions: read-out: Activity
Cortical neurone [21] = assay: Neuroprotective activity against Amyloid beta (1 to 42)-induced toxicity in rat cortical neuron assessed as cell viability at 20 uM measured after 48 hrs by MTT assay; format: functional; conditions: read-out: Activity
[22] = biological target: Mitogen-activated protein kinase 10 (Homo sapiens, UniProt P53779); assay: Inhibition of human JNK3 incubated for 40 mins in presence of ATP and [gamma33P-ATP] by scintillation counting method; conditions: read-out: IC50
[23] = biological target: Mitogen-activated protein kinase 8 (Homo sapiens, UniProt P45983); assay: Inhibition of human JNK1 incubated for 40 mins in presence of ATP and [gamma33P-ATP] by scintillation counting method
[24] = biological target: Mitogen-activated protein kinase 9 (Homo sapiens, UniProt P45984); assay: Inhibition of human JNK2 incubated for 40 mins in presence of ATP and [gamma33P-ATP] by scintillation counting method
[25] = biological target: Glycogen synthase kinase-3 alpha (Homo sapiens, UniProt P49840); assay: Inhibition of human GSK3alpha assessed as incorporation of 33P-ATP
[26] = biological target: Glycogen synthase kinase-3 beta (Homo sapiens, UniProt P49841); assay: Inhibition of human GSK3beta assessed as incorporation of 33P-ATP
[27] = biological target: T1, Dual specificity mitogen-activated protein kinase kinase 6 (Homo sapiens, UniProt P52564); assay: Inhibition of MKK6 (unknown origin) assessed as incorporation of 33P-ATP
T1 sequence (P52564 whole entry): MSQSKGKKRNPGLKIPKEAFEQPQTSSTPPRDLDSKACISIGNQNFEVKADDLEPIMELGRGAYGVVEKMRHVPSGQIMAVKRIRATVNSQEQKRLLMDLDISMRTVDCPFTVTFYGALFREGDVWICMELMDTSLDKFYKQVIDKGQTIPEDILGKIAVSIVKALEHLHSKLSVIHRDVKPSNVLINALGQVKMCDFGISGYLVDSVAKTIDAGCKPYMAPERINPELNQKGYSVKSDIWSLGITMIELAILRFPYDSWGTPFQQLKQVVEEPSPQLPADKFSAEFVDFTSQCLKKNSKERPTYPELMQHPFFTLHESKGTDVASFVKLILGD

[28] = biological target: Mitogen-activated protein kinase 14 (Homo sapiens, UniProt Q16539); assay: Inhibition of human SAPK2a assessed as incorporation of 33P-ATP
Cortical neurone [29] = assay: Neuroprotective activity against Amyloid beta (1 to 42)-induced toxicity in rat cortical neuron assessed as cell viability measured after 24 to 48 hrs by MTT assay; format: functional, cell-based; conditions: time 24-48 hrs

Glycogen synthase kinase-3 beta, sequence (P49841 whole entry): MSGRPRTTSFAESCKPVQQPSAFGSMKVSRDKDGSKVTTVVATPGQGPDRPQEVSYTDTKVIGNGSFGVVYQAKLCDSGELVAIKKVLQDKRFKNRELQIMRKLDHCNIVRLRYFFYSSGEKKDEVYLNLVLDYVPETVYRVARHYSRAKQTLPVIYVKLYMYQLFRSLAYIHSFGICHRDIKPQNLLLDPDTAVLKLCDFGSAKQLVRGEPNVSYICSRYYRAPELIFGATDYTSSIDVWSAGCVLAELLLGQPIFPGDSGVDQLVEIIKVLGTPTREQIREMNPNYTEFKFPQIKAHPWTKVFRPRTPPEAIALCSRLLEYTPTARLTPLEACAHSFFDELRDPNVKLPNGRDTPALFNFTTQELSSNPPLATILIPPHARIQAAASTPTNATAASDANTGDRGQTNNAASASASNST
Mitogen-activated protein kinase 10, sequence (P53779 whole entry): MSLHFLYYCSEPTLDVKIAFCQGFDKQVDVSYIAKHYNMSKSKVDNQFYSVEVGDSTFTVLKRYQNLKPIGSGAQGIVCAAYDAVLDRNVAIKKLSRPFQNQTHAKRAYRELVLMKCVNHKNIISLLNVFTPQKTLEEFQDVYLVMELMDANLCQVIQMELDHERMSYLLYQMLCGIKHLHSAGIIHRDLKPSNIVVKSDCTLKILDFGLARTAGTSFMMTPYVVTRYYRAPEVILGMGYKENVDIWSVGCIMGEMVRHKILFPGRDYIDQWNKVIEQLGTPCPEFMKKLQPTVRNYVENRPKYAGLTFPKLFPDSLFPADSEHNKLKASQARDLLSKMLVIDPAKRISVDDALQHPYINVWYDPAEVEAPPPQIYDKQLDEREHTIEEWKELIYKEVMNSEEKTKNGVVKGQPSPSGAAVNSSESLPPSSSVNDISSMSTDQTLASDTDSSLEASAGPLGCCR
Mitogen-activated protein kinase 9, sequence (P45984 whole entry): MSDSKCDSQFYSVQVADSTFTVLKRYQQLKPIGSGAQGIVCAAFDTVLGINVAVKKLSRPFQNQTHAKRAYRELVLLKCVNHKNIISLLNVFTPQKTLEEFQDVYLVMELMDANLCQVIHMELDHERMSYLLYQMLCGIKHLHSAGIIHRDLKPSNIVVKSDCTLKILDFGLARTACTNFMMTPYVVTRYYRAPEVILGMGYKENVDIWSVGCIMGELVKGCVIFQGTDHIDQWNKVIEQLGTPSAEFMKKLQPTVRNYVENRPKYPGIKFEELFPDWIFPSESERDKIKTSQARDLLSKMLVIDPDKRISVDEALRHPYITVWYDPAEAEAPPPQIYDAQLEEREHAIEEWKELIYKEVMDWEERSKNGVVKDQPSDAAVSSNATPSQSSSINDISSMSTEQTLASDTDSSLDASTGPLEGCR
Mitogen-activated protein kinase 8, sequence (P45983 whole entry): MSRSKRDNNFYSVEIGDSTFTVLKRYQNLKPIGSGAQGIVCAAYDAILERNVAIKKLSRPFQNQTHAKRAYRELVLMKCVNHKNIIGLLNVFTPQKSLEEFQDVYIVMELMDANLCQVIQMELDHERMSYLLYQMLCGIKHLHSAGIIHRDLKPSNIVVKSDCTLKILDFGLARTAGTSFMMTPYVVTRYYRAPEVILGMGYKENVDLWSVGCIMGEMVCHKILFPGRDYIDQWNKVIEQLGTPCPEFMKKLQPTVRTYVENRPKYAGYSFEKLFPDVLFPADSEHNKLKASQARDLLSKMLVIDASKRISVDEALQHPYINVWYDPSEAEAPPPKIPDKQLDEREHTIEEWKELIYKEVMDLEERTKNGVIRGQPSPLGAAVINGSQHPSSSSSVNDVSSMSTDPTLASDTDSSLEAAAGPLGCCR
Glycogen synthase kinase-3 alpha, sequence (P49840 whole entry): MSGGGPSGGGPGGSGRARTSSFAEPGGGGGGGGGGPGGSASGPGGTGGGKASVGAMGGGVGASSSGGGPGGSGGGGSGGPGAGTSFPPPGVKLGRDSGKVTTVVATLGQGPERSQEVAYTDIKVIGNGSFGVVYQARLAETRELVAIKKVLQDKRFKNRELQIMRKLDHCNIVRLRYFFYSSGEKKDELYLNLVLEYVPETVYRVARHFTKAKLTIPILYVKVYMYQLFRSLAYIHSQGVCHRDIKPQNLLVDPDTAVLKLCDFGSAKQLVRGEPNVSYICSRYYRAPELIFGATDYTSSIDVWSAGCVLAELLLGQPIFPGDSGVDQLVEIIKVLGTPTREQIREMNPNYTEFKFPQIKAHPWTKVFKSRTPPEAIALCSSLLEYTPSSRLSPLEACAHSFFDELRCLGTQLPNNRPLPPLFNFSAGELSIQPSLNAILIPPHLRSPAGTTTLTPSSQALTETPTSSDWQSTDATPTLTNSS
Mitogen-activated protein kinase 14, sequence (Q16539 whole entry): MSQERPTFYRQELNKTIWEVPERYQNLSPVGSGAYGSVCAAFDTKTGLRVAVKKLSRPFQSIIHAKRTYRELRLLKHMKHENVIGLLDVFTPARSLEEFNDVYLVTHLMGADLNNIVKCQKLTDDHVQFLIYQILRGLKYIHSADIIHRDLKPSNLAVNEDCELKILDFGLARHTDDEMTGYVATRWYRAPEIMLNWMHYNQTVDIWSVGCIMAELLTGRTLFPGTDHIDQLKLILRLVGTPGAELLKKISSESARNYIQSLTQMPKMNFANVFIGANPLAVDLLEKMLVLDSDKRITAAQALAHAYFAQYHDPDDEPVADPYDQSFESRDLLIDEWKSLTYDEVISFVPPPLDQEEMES

## N#CCc1cnc(-c2ccc3ccccc3c2)n1-c1ccnc(N[C@H]2CCCN(C(=O)C3CC3)C2)n1
[1]
  Papp: 28.5 ×10⁻⁶ cm/s
[2]
  Papp B→A at 1 h, 10 µM: 26.4 ×10⁻⁶ cm/s
[3]
  Papp A→B at 1 h, 10 µM: 13.7 ×10⁻⁶ cm/s
Mus musculus [4]
  Time: 15.55 s
Mus musculus [5]
  Time: 13.24 s
Mus musculus [6]
  Time: 59.82 s
Mus musculus [7]
  Activity: 56.55%
[8]
  Activity: Non-Toxic
[9]
  Activity: Non-Toxic
Mus musculus [10]
  Time: 15.06 s
[11]
  Kp: 0.02
[12]
  Cmax: 1080 ng/mL
[13]
  Drug uptake: 26 ng/g
Mus musculus [14]
  Activity: 56.12%
Mus musculus [15]
  Activity: 52.31%
[16]
  Activity: Non-Toxic
[17]
  bioavailability: 15.7%
[18]
  half-life: 20.4 min
[19]
  Tmax: 37.8 min
Cortical neurone [20]
  viability at 20 µM: 72.6%
Cortical neurone [21]
  viability at 20 µM: 46.8%
[22]
  IC50: 1 nM
[23]
  IC50: 298 nM
[24]
  IC50: 144 nM
[25]
  IC50: 5780 nM
[26]
  IC50: 11700 nM
[27]
  IC50: 15100 nM
[28]
  IC50: 310 nM
Cortical neurone [29]
  Activity: Dose-Dependent Effect
